{
  "source": "ChEMBL document CHEMBL5223175",
  "about": "“Discovery of novel 2-oximino-2-indolylacetamide derivatives as potent anticancer agents capable of inducing cell autophagy and ferroptosis” (Bioorg Med Chem, 2023)",
  "key": {"[1]": {"system": "5-8F", "test": "Induction of ferroptosis in human 5-8F cells assessed as appearance of […] at 30 uM incubated for 48 hrs by TEM analysis", "type": "functional, cell-based"}, "[2]": {"system": "5-8F", "test": "Antiproliferative activity against human 5-8F cells assessed as reduction in cell viability at 5 to 40 uM incubated for 48 hrs by CCK-8 assay", "type": "functional, cell-based", "conditions": "dose 5-40 µM"}, "[3]": {"system": "CAL-27", "test": "Antiproliferative activity against human CAL-27 cells assessed as reduction in cell viability at 5 to 40 uM incubated for 48 hrs by CCK-8 assay", "type": "functional, cell-based", "conditions": "dose 5-40 µM"}, "[4]": {"test": "Toxicity in BALB/c mouse xenografted with human 5-8F cells assessed as change in liver morphology at 10 to 20 mg/kg, ip administered daily by H and E staining based assay", "type": "organism-based", "conditions": "in vivo, dose 10-20 mg/kg"}, "[5]": {"system": "5-8F", "test": "Antiproliferative activity against human 5-8F cells assessed as decrease in cell viability at 30 uM incubated for 48 hrs in presence of Fer-1", "type": "functional, cell-based"}, "[6]": {"test": "Toxicity in BALB/c mouse xenografted with human 5-8F cells assessed as change in heart morphology at 10 to 20 mg/kg, ip administered daily by H and E staining based assay", "type": "organism-based", "conditions": "in vivo, dose 10-20 mg/kg"}, "[7]": {"system": "5-8F", "test": "Induction of autophagy in human 5-8F cells assessed as increase in Beclin-1 expression at 10 to 30 uM by Western blotting analysis", "type": "functional, cell-based", "conditions": "dose 10-30 µM"}, "[8]": {"system": "5-8F", "test": "Induction of apoptosis in human 5-8F cells assessed as upregulation of p53 expression at 10 to 30 uM incubated for 48 hrs by Western blotting analysis", "type": "functional, cell-based", "conditions": "dose 10-30 µM"}, "[9]": {"system": "CAL-27", "test": "Antiproliferative activity against human CAL-27 cells assessed as reduction in cell viability incubated for 72 hrs by CCK-8 assay", "type": "functional, cell-based", "conditions": "CAL-27, 72 h"}, "[10]": {"system": "5-8F", "test": "Induction of ferroptosis in human 5-8F cells assessed as decrease in GSH level at 10 to 30 uM incubated for 48 hrs by Western blotting analysis", "type": "functional, cell-based", "conditions": "dose 10-30 µM"}, "[11]": {"test": "Toxicity in BALB/c mouse xenografted with human 5-8F cells assessed as decrease in body weight at 10 to 20 mg/kg, ip administered daily", "type": "organism-based", "conditions": "in vivo, dose 10-20 mg/kg"}, "[12]": {"system": "5-8F", "test": "Induction of ROS generation in human 5-8F cells at 30 uM pretreated with NAC for 2 hrs followed by compound addition and measured after 48 hrs by DCFH-DA staining based flow cytometry analysis", "type": "functional, cell-based"}, "[13]": {"system": "5-8F", "test": "Induction of ferroptosis in human 5-8F cells assessed as decrease in GPx4 expression at 10 to 30 uM incubated for 48 hrs in presence of Fer-1 by Western blotting analysis", "type": "functional, cell-based", "conditions": "dose 10-30 µM"}, "[14]": {"system": "5-8F", "test": "Induction of autophagy in human 5-8F cells assessed as increase in LC3I to LC3II conversion at 10 to 30 uM by Western blotting analysis", "type": "functional, cell-based", "conditions": "dose 10-30 µM, time 48.0 hrs"}, "[15]": {"system": "HeLa", "test": "Antiproliferative activity against human HeLa cells assessed as cell viability at 80 uM incubated for 72 hrs by CCK-8 assay", "type": "functional", "conditions": "read-out: Activity"}, "[16]": {"system": "5-8F", "test": "Downregulation of p-ERK1/2 in human 5-8F cells at 10 to 30 uM by Western blotting analysis", "type": "functional, cell-based", "conditions": "dose 10-30 µM"}, "[17]": {"system": "5-8F", "test": "Induction of ferroptosis in human 5-8F cells assessed as appearance of small swollen contractile punctate structures at 30 uM incubated for 48 hrs by MitoTracker Red staining based confocal microscopic analysis", "type": "functional, cell-based"}, "[18]": {"test": "Toxicity in BALB/c mouse xenografted with human 5-8F cells assessed as change in lung morphology at 10 to 20 mg/kg, ip administered daily by H and E staining based assay", "type": "organism-based", "conditions": "in vivo, dose 10-20 mg/kg"}, "[19]": {"system": "5-8F", "test": "Downregulation of p-mTOR expression in human 5-8F cells at 10 to 30 uM by Western blotting analysis", "type": "functional, cell-based", "conditions": "dose 10-30 µM"}, "[20]": {"test": "Toxicity in BALB/c mouse xenografted with human 5-8F cells assessed as change in kidney morphology at 10 to 20 mg/kg, ip administered daily by H and E staining based assay", "type": "organism-based", "conditions": "in vivo, dose 10-20 mg/kg"}, "[21]": {"system": "5-8F", "test": "Induction of ferroptosis in human 5-8F cells assessed as increase in membrane density at 30 uM incubated for 48 hrs by TEM analysis", "type": "functional, cell-based"}, "[22]": {"system": "5-8F", "test": "Antiproliferative activity against human 5-8F cells assessed as reduction in cell viability incubated for 72 hrs by CCK-8 assay", "type": "functional, cell-based"}, "[23]": {"system": "5-8F", "test": "Antitumor activity against human 5-8F cells xenografted in BALB/c mouse assessed as decrease in GPx4 expression at 10 to 20 mg/kg, ip administered daily", "type": "functional, organism-based", "conditions": "dose 10-20 mg/kg"}, "[24]": {"test": "Toxicity in BALB/c mouse xenografted with human 5-8F cells assessed as change in spleen morphology at 10 to 20 mg/kg, ip administered daily by H and E staining based assay", "type": "organism-based", "conditions": "in vivo, dose 10-20 mg/kg"}, "[25]": {"system": "5-8F", "test": "Antitumor activity against human 5-8F cells xenografted in BALB/c mouse assessed as tumor growth inhibition at 10 to 20 mg/kg, ip administered daily", "type": "functional, organism-based", "conditions": "dose 10-20 mg/kg"}, "[26]": {"system": "5-8F", "test": "Antiproliferative activity against human 5-8F cells assessed as cell viability at 80 uM incubated for 72 hrs by CCK-8 assay", "type": "functional", "conditions": "read-out: Activity"}, "[27]": {"system": "5-8F", "test": "Induction of ferroptosis in human 5-8F cells assessed as appearance of pseudo inclusion bodies at 30 uM incubated for 48 hrs by TEM analysis", "type": "functional, cell-based"}, "[28]": {"system": "5-8F", "test": "Downregulation of p-AKT expression in human 5-8F cells at 10 to 30 uM by Western blotting analysis", "type": "functional, cell-based", "conditions": "dose 10-30 µM"}, "[29]": {"system": "SK-HEP1", "test": "Antiproliferative activity against human SK-HEP1 cells assessed as cell viability at 80 uM incubated for 72 hrs by CCK-8 assay", "type": "functional", "conditions": "read-out: Activity"}, "[30]": {"system": "5-8F", "test": "Antiproliferative activity against human 5-8F cells assessed as decrease in cell viability at 30 uM incubated for 48 hrs in presence of Era", "type": "functional, cell-based"}, "[31]": {"system": "5-8F", "test": "Induction of ferroptosis in human 5-8F cells assessed as decrease in GPx4 expression at 10 to 30 uM incubated for 48 hrs in presence of Era by Western blotting analysis", "type": "functional, cell-based", "conditions": "dose 10-30 µM"}, "[32]": {"system": "5-8F", "test": "Inhibition of colony formation in human 5-8F cells at 10 to 30 uM replaced with fresh medium for every 3 days and measured for 10 to 15 days by Giemsa staining based assay", "type": "functional, cell-based", "conditions": "dose 10-30 µM, time 10-15 day"}, "[33]": {"system": "5-8F", "test": "Induction of autophagy in human 5-8F cells assessed as increase in LC3 puncta accumulation at 30 uM incubated for 48 hrs by confocal microscopy analysis", "type": "functional, cell-based"}, "[34]": {"system": "5-8F", "test": "Induction of apoptosis in human 5-8F cells assessed as upregulation of Bax expression at 10 to 30 uM incubated for 48 hrs by Western blotting analysis", "type": "functional, cell-based", "conditions": "dose 10-30 µM"}, "[35]": {"system": "5-8F", "test": "Downregulation of STAT3 phosphorylation in human 5-8F cells at 10 to 30 uM incubated for 48 hrs by Western blotting analysis", "type": "functional, cell-based", "conditions": "dose 10-30 µM"}, "[36]": {"system": "5-8F", "test": "Induction of ferroptosis in human 5-8F cells assessed as appearance of mitochondrial pyknosis at 30 uM incubated for 48 hrs by TEM analysis", "type": "functional, cell-based"}, "[37]": {"system": "5-8F", "test": "Induction of apoptosis in human 5-8F cells assessed as downregulation of Bcl-2 expression at 10 to 30 uM incubated for 48 hrs by Western blotting analysis", "type": "functional, cell-based", "conditions": "dose 10-30 µM"}, "[38]": {"system": "5-8F", "test": "Induction of ROS generation in human 5-8F cells at 10 to 30 uM after 48 hrs by fluorescence microscopy analysis", "type": "functional, cell-based", "conditions": "dose 10-30 µM"}, "[39]": {"system": "5-8F", "test": "Induction of apoptosis in human 5-8F cells assessed as downregulation of procaspase-3 expression at 10 to 30 uM incubated for 48 hrs by Western blotting analysis", "type": "functional, cell-based", "conditions": "dose 10-30 µM"}},
  "note": "Calls of active or inactive are those of the source. The calls are words filed in the database; no cut-off is given here.",
  "data": [
    {"smiles": "Cn1cc(/C(=N\\O)C(=O)Nc2ccc(Cl)cc2)c2ccccc21", "values": [
      {"measurement": "Activity", "setting": "[1]", "result": "Active"},
      {"measurement": "Activity", "setting": "[2]", "result": "Active"},
      {"measurement": "Activity", "setting": "[3]", "result": "Active"},
      {"measurement": "Activity", "setting": "[4]", "result": "Non-Toxic"},
      {"measurement": "Activity", "setting": "[5]", "result": "inactive"},
      {"measurement": "Activity", "setting": "[6]", "result": "Non-Toxic"},
      {"measurement": "Activity", "setting": "[7]", "result": "Active"},
      {"measurement": "Activity", "setting": "[8]", "result": "Active"},
      {"measurement": "IC50", "setting": "[9]", "result": 13.7, "unit": "µM"},
      {"measurement": "Activity", "setting": "[10]", "result": "Active"},
      {"measurement": "Activity", "setting": "[11]", "result": "Non-Toxic"},
      {"measurement": "Activity", "setting": "[12]", "result": "inactive"},
      {"measurement": "Activity", "setting": "[13]", "result": "inactive"},
      {"measurement": "Activity", "setting": "[14]", "result": "Active"},
      {"measurement": "viability at 80 µM", "setting": "[15]", "result": 12.3, "unit": "%"},
      {"measurement": "Activity", "setting": "[16]", "result": "Active"},
      {"measurement": "Activity", "setting": "[17]", "result": "Active"},
      {"measurement": "Activity", "setting": "[18]", "result": "Non-Toxic"},
      {"measurement": "Activity", "setting": "[19]", "result": "Active"},
      {"measurement": "Activity", "setting": "[20]", "result": "Non-Toxic"},
      {"measurement": "Activity", "setting": "[21]", "result": "Active"},
      {"measurement": "IC50", "setting": "[22]", "result": 9.43, "unit": "µM"},
      {"measurement": "Activity", "setting": "[23]", "result": "Active"},
      {"measurement": "Activity", "setting": "[24]", "result": "Non-Toxic"},
      {"measurement": "Activity", "setting": "[25]", "result": "Active"},
      {"measurement": "viability at 80 µM", "setting": "[26]", "result": 7.8, "unit": "%"},
      {"measurement": "Activity", "setting": "[27]", "result": "Active"},
      {"measurement": "Activity", "setting": "[28]", "result": "Active"},
      {"measurement": "viability at 80 µM", "setting": "[29]", "result": 20.9, "unit": "%"},
      {"measurement": "Activity", "setting": "[30]", "result": "Active"},
      {"measurement": "Activity", "setting": "[31]", "result": "Active"},
      {"measurement": "inhibition", "setting": "[32]", "result": "Active"},
      {"measurement": "Activity", "setting": "[33]", "result": "Active"},
      {"measurement": "Activity", "setting": "[34]", "result": "Active"},
      {"measurement": "Activity", "setting": "[35]", "result": "Active"},
      {"measurement": "Activity", "setting": "[36]", "result": "Active"},
      {"measurement": "Activity", "setting": "[37]", "result": "Active"},
      {"measurement": "Activity", "setting": "[38]", "result": "Active"},
      {"measurement": "Activity", "setting": "[39]", "result": "Active"}
    ]}
  ]
}
